The IC50 is the point on the concentration scale where inhibition reaches its midpoint. Higher therefore signals a need for much substance.

Data on three compounds can be found in ChEMBL document CHEMBL3886458 (2016).

Test [1] concerns the target T1, Poly [ADP-ribose] polymerase tankyrase-2 (Homo sapiens, UniProt Q9H2K2).
T1 sequence (Q9H2K2 whole entry): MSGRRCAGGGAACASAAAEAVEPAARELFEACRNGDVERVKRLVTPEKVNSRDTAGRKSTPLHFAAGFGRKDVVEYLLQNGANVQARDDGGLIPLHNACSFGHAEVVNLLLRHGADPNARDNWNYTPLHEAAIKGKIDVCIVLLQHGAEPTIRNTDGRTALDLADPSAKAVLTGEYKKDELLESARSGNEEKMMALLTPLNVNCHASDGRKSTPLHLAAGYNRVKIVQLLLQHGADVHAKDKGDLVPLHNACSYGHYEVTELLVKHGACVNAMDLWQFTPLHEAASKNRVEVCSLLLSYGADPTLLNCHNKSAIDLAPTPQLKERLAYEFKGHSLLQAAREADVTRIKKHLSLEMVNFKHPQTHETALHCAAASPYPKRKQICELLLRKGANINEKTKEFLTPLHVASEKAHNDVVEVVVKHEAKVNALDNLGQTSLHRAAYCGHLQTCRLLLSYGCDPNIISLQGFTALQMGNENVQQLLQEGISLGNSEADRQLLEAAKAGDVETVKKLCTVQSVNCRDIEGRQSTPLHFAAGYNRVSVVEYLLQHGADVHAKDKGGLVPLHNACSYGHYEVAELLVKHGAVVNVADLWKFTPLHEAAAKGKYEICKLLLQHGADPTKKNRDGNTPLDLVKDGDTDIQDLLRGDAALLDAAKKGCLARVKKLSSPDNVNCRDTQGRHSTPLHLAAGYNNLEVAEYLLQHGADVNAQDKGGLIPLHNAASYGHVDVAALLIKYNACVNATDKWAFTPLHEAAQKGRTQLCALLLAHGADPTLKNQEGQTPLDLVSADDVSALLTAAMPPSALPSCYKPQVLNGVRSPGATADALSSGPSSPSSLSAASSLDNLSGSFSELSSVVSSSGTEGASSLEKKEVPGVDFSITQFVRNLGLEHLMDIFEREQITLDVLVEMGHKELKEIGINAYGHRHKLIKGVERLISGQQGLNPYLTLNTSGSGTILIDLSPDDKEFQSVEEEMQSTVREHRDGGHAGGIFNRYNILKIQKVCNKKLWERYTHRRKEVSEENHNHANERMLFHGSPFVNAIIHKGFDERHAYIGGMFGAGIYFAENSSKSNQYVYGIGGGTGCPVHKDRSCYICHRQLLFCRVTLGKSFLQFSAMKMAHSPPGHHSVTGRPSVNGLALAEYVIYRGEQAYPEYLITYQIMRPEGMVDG
The experiment in a line: Biochemical Assay: The autoparsylation activity of the TNKS 1/2 or PARP1/2 enzymes was measured by the liquid chromatography-mass spectrometry (LC/MS) detection of nicotinamide as readout. Compound activity in inhibiting the TNKS and PARP autoparsylation was evaluated by IC50 measurements. In the compound screening assays, the reaction is composed of 5 uL of compound in […]-point serial ….

The target of test [2] is T2, Poly [ADP-ribose] polymerase tankyrase-1 (Homo sapiens, UniProt O95271).
T2 sequence (O95271 whole entry): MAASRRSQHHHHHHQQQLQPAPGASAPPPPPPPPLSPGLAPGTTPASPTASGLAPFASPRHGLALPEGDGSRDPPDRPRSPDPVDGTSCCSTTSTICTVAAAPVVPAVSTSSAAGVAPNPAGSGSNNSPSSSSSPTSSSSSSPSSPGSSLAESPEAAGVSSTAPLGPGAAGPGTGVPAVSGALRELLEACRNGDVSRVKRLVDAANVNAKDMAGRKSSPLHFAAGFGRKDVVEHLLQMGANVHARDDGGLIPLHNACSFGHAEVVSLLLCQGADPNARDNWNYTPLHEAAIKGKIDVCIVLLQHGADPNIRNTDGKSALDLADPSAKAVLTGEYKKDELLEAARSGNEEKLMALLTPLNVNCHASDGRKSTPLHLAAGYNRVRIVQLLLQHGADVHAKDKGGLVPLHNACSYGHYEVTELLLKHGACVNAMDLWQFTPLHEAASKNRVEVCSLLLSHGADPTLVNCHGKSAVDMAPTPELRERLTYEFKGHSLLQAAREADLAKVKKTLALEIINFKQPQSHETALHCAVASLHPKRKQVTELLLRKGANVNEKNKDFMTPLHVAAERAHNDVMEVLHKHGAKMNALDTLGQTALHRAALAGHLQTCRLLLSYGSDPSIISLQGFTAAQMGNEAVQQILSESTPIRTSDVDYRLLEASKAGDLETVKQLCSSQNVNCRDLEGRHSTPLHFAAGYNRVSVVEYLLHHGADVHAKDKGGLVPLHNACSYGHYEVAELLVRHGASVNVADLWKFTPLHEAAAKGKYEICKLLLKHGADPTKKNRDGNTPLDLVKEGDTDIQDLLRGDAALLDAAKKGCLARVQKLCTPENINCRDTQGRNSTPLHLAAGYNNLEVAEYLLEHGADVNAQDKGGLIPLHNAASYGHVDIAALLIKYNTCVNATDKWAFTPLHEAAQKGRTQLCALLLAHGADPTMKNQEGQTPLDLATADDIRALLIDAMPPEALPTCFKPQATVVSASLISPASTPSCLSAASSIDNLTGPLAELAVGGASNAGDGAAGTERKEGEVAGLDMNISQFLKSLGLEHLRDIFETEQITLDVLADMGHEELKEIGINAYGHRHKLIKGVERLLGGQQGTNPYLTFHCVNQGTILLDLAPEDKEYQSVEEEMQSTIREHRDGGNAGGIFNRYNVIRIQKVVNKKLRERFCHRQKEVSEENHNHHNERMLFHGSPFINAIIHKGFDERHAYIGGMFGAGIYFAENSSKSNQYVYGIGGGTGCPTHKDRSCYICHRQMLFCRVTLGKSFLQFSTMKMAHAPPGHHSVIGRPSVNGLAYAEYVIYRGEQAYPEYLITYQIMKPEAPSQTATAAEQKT
Described as above.

For the compound `O=c1[nH]c(CN(Cc2cccs2)S(=O)(=O)CCc2ccccc2)nc2c1COCC2`, the IC50 amounted to 0.91 µM in test [1] and 5.12 µM in test [2].

In the case of `O=c1[nH]c(CN(Cc2cccs2)S(=O)(=O)Cc2ccccc2)nc2c1COCC2`, the figures for the IC50 in test [1] and in test [2] were 0.177 µM and 1.16 µM, respectively.

Turning to `O=C(CCc1c[nH]c2ccccc12)N(Cc1nc2c(c(=O)[nH]1)COCC2)Cc1cccs1`, the IC50 was found to be 1.58 µM in test [1] and 6.4 µM in test [2].
